Laboratory results as given in patent publication US20220386606A1, “SPECIFICALLY SUBSTITUTED 3-PHENYL-5-SPIROCYCLOPENTYL-3-PYRROLIN-2-ONES AND THEIR USE AS HERBICIDES” (Bayer Aktiengesellschaft, priority 2019, published 2022).

Experiments:
POLCO = assay: Pre-emergence herbicidal action against POLCO; assay type: in vivo, Polygonum convolvulus; details: 320 g/ha
How it was run: (§1)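 Pre-emergence soil-surface application: WP/EC in water, 600 to 800 L/ha, + 0.2% wetting agent, onto soil-covered seeds in sandy loam. Greenhouse, 3 wk. Visual % activity vs untreated (100% = dead).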

ABUTH [1] = assay: Post-emergence herbicidal action against ABUTH; assay type: in vivo, Abutylon threophrasti; details: 80 g/ha, visual assessment about 3 weeks after treatment vs untreated controls
How it was run: (§2)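 Weeds and crops grown in sandy loam in the greenhouse, treated post-emergence at the one-leaf stage (2–3 weeks after sowing). WP or EC formulations sprayed as aqueous suspension/emulsion at 600–800 l/ha water with 0.2% wetting agent. Visual % activity scored after about 3 weeks versus untreated controls (100% = dead, 0% = like control).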

AVEFA [2] = assay: Post-emergence herbicidal action against AVEFA; assay type: in vivo, Avena fatua; details: 80 g/ha, visual assessment after about 3 weeks
How it was run: as §2

SETVI [3] = assay: Pre-emergence herbicidal action against SETVI; assay type: in vivo, Setaria viridis; details: 320 g/ha, scored visually after 3 weeks vs untreated controls
How it was run: as §1

ABUTH [4] = assay: Pre-emergence herbicidal action against ABUTH; assay type: in vivo, Abutylon threophrasti; details: 320 g/ha
Excerpt: Seeds of monocotyledonous and dicotyledonous weed plants and crop plants are laid out in sandy loam soil in wood-fiber pots and covered with soil. The compounds of the invention, formulated in the form of wettable powders (WP) or as emulsion concentrates (EC), are then applied to the surface of the covering soil as aqueous suspension or emulsion at a water application rate equating to 600 to 800 L/ha with addition of 0.2% wetting agent.
After the treatment, the pots are placed in a greenhouse and kept under good growth conditions for the trial plants. The damage to the test plants is scored visually after a test period of 3 weeks by comparison with untreated controls (herbicidal activity in percent (%): 100% activity=the plants have died, 0% activity=like control plants).

VERPE = assay: Pre-emergence herbicidal action against VERPE; assay type: in vivo, Veronica persica; details: 320 g/ha
How it was run: as §1

DIGSA [5] = assay: Pre-emergence herbicidal action against DIGSA; assay type: in vivo, Digitaria sanguinalis; details: 320 g/ha, scored visually after 3 weeks vs untreated controls
How it was run: as §1

ALOMY [6] = assay: Post-emergence herbicidal action against ALOMY; assay type: in vivo, Alopecurus myosuroides; details: 80 g/ha, visual assessment after about 3 weeks
How it was run: as §2

ALOMY [7] = assay: Pre-emergence herbicidal action against ALOMY; assay type: in vivo, Alopecurus myosuroides; details: 320 g/ha, scored visually after 3 weeks vs untreated controls
How it was run: as §1

ECHCG [8] = assay: Post-emergence herbicidal action against ECHCG; assay type: in vivo, Echinochloa crus-galli; details: 80 g/ha, visual assessment about 3 weeks after treatment vs untreated controls
How it was run: as §2

LOLRI [9] = assay: Post-emergence herbicidal action against LOLRI; assay type: in vivo, Lolium rigidum; details: 80 g/ha, visual assessment about 3 weeks after treatment vs untreated controls
How it was run: as §2

DIGSA [10] = assay: Post-emergence herbicidal action against DIGSA; assay type: in vivo, Digitaria sanguinalis; details: 80 g/ha, visual assessment about 3 weeks after treatment vs untreated controls
How it was run: as §2

MATIN = assay: Pre-emergence herbicidal action against MATIN; assay type: in vivo; details: 320 g/ha
How it was run: as §1

LOLRI [11] = assay: Pre-emergence herbicidal action against LOLRI (Table 8, titled post-emergence at 320 g/ha); assay type: in vivo, Lolium rigidum; details: table stands in the pre-emergence section
How it was run: as §1

ECHCG [12] = assay: Pre-emergence herbicidal action against ECHCG; assay type: in vivo, Echinochloa crus-galli; details: 320 g/ha, scored visually after 3 weeks vs untreated controls
How it was run: as §1

SETVI [13] = assay: Post-emergence herbicidal action against SETVI; assay type: in vivo, Setaria viridis; details: 80 g/ha, visual assessment about 3 weeks after treatment vs untreated controls
How it was run: as §2

AVEFA [14] = assay: Pre-emergence herbicidal action against AVEFA; assay type: in vivo, Avena fatua; details: 320 g/ha, scored visually after 3 weeks vs untreated controls
How it was run: as §1

AMARE = assay: Pre-emergence herbicidal action against AMARE; assay type: in vivo, Amaranthus retroflexus; details: 320 g/ha
How it was run: as §1

VIOTR [15] = assay: Pre-emergence herbicidal action against VIOTR; assay type: in vivo, Viola tricolor; details: 320 g/ha
How it was run: as §1

VIOTR [16] = assay: Post-emergence herbicidal action against VIOTR; assay type: in vivo, Viola tricolor; details: 80 g/ha, visual assessment about 3 weeks after treatment vs untreated controls
Protocol: Seeds of monocotyledonous and dicotyledonous weed and crop plants are laid out in sandy loam soil in wood-fiber pots, covered with soil and cultivated in a greenhouse under good growth conditions. 2 to 3 weeks after sowing, the test plants are treated at the one-leaf stage. The compounds of the invention, formulated in the form of wettable powders (WP) or as emulsion concentrates (EC), are then sprayed onto the green parts of the plants as aqueous suspension or emulsion at a water application rate equating to 600 to 800 l/ha with addition of 0.2% wetting agent. After the test plants have been left to stand in the greenhouse under optimal growth conditions for about 3 weeks, the action of the preparations is assessed visually in comparison to untreated controls (herbicidal action in percent (%): 100% activity=the plants have died, 0% activity=like control plants).

## CC#Cc1cc(C)c(C2=C(OC(=O)C(C)C)C3(CCC(COC)C3)NC2=O)c(Br)c1 (centres unmarked) [Example P-32]
POLCO
  Pre-emergence action against POLCO in %: 80%
ABUTH [1]
  Post-emergence action against ABUTH in %: 90%
AVEFA [2]
  Post-emergence action against AVEFA in %: 90%
SETVI [3]
  Pre-emergence action against SETVI in %: 100%
ABUTH [4]
  Pre-emergence action against ABUTH in %: 80%
VERPE
  Pre-emergence action against VERPE in %: 90%
DIGSA [5]
  Pre-emergence action against DIGSA in %: 100%
ALOMY [6]
  Post-emergence action against ALOMY in %: 100%
ALOMY [7]
  Pre-emergence action against ALOMY in %: 100%
ECHCG [8]
  Post-emergence action against ECHCG in %: 100%
LOLRI [9]
  Post-emergence action against LOLRI in %: 100%
DIGSA [10]
  Post-emergence action against DIGSA in %: 100%
MATIN
  Pre-emergence action against MATIN in %: 80%
LOLRI [11]
  Pre-emergence herbicidal action against LOLRI in %: 100%
ECHCG [12]
  Pre-emergence action against ECHCG in %: 100%
SETVI [13]
  Post-emergence action against SETVI in %: 100%
AVEFA [14]
  Pre-emergence action against AVEFA in %: 90%
AMARE
  Pre-emergence action against AMARE in %: 90%
VIOTR [15]
  Pre-emergence action against VIOTR in %: 100%

## CC#Cc1cc(C)c(C2=C(OC(=O)OCC)C3(CCC(COCCC)C3)NC2=O)c(Cl)c1 (centres unmarked) [Example P-87]
POLCO
  Pre-emergence action against POLCO in %: 80%
ABUTH [1]
  Post-emergence action against ABUTH in %: 80%
AVEFA [2]
  Post-emergence action against AVEFA in %: 80%
SETVI [3]
  Pre-emergence action against SETVI in %: 100%
ABUTH [4]
  Pre-emergence action against ABUTH in %: 80%
VERPE
  Pre-emergence action against VERPE in %: 80%
DIGSA [5]
  Pre-emergence action against DIGSA in %: 100%
ALOMY [6]
  Post-emergence action against ALOMY in %: 90%
ALOMY [7]
  Pre-emergence action against ALOMY in %: 100%
ECHCG [8]
  Post-emergence action against ECHCG in %: 100%
LOLRI [9]
  Post-emergence action against LOLRI in %: 100%
DIGSA [10]
  Post-emergence action against DIGSA in %: 100%
LOLRI [11]
  Pre-emergence herbicidal action against LOLRI in %: 100%
ECHCG [12]
  Pre-emergence action against ECHCG in %: 100%
SETVI [13]
  Post-emergence action against SETVI in %: 100%
AVEFA [14]
  Pre-emergence action against AVEFA in %: 100%
VIOTR [15]
  Pre-emergence action against VIOTR in %: 90%

## CC#Cc1cc(Br)c(C2=C(OC(=O)OCC)C3(CCC(COC)C3)NC2=O)c(OC)c1 (centres unmarked) [Example P-08]
POLCO
  Pre-emergence action against POLCO in %: 100%
ABUTH [1]
  Post-emergence action against ABUTH in %: 80%
SETVI [3]
  Pre-emergence action against SETVI in %: 100%
ABUTH [4]
  Pre-emergence action against ABUTH in %: 80%
VERPE
  Pre-emergence action against VERPE in %: 90%
DIGSA [5]
  Pre-emergence action against DIGSA in %: 100%
ALOMY [6]
  Post-emergence action against ALOMY in %: 100%
ALOMY [7]
  Pre-emergence action against ALOMY in %: 100%
ECHCG [8]
  Post-emergence action against ECHCG in %: 100%
LOLRI [9]
  Post-emergence action against LOLRI in %: 100%
DIGSA [10]
  Post-emergence action against DIGSA in %: 100%
MATIN
  Pre-emergence action against MATIN in %: 80%
LOLRI [11]
  Pre-emergence herbicidal action against LOLRI in %: 100%
ECHCG [12]
  Pre-emergence action against ECHCG in %: 100%
SETVI [13]
  Post-emergence action against SETVI in %: 100%
AVEFA [14]
  Pre-emergence action against AVEFA in %: 100%
VIOTR [15]
  Pre-emergence action against VIOTR in %: 90%

## CC#Cc1cc(F)c(C2=C(OC(=O)OCC)C3(CCC(COCCC)C3)NC2=O)c(OC)c1 (centres unmarked) [Example P-82]
POLCO
  Pre-emergence action against POLCO in %: 100%
SETVI [3]
  Pre-emergence action against SETVI in %: 100%
DIGSA [5]
  Pre-emergence action against DIGSA in %: 100%
ALOMY [6]
  Post-emergence action against ALOMY in %: 100%
ALOMY [7]
  Pre-emergence action against ALOMY in %: 100%
ECHCG [8]
  Post-emergence action against ECHCG in %: 100%
LOLRI [9]
  Post-emergence action against LOLRI in %: 100%
VIOTR [16]
  Post-emergence action against VIOTR in %: 80%
DIGSA [10]
  Post-emergence action against DIGSA in %: 90%
LOLRI [11]
  Pre-emergence herbicidal action against LOLRI in %: 100%
ECHCG [12]
  Pre-emergence action against ECHCG in %: 100%
SETVI [13]
  Post-emergence action against SETVI in %: 100%
AVEFA [14]
  Pre-emergence action against AVEFA in %: 90%
AMARE
  Pre-emergence action against AMARE in %: 90%
VIOTR [15]
  Pre-emergence action against VIOTR in %: 90%
